Patent publication US11529341B2, “Bicyclic compounds as inhibitors of PD1/PD-L1 interaction/activation” (JUBILANT PRODEL LLC, priority 2018, dated 2022)

Target: T1, PD-1/PD-L1 interaction (Homo sapiens, UniProt Q9NZQ7)
T1 construct: Tag1 (undisclosed kit tag); purchased CisBio 63ADK000CPAPEG
Assay: PD-1/PD-L1 Homogenous Time-Resolved Fluorescence (HTRF) binding assay (CisBio kit)
Conditions: Biochemical PD1/PD-L1 inhibition
In short: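 Tagged PD-L1 and PD-1 proteins preincubated with compound 15 min, then anti-Tag1-Eu3+ donor and anti-Tag2-XL665 acceptor added, 1 h at room temperature. Emission read at 665 and 620 nm; signal expressed as HTRF ratio (665/620)×10^4, loss of signal indicating blocked binding.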

T1 sequence (Q9NZQ7 19-238 limits assumed): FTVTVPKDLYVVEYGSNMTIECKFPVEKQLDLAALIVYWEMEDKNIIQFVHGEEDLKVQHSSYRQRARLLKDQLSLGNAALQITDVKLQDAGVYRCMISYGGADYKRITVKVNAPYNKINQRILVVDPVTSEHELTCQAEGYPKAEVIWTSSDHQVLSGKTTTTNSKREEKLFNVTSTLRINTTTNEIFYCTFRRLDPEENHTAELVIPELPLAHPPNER

SMILES | IC50
COC(=O)C12CCC(NCc3c(OCc4cccc(C#N)c4)cc(OCc4cccc(-c5ccccc5)c4C)c4c3CCC4)(CC1)CC2 [Compound 73, methyl 4-(((5-((3-cyanobenzyl)oxy)-7-((2-methyl-[1,1′-biphenyl]-3-yl)methoxy)-2,3-dihydro-1H-inden-4-yl)methyl)amino)bicyclo[2.2.2]octane-1-carboxylate] | 100 to 500 nM
COc1cc(OCc2cccc(-c3ccccc3)c2C(F)(F)F)c2c(c1CN1CCCC[C@H]1C(=O)O)CCC2 [Compound 75, (S)-1-((5-methoxy-7-((2-(trifluoromethyl)-[1,1′-biphenyl]-3-yl)methoxy)-2,3-dihydro-1H-inden-4-yl)methyl)piperidine-2-carboxylic acid] | > 500 nM
COc1cc(OCc2cccc(-c3ccccc3)c2C(F)(F)F)c2c(c1CN1C[C@H](O)C[C@H]1C(=O)O)CCC2 [Compound 76, (2S,4R)-4-hydroxy-1-((5-methoxy-7-((2-(trifluoromethyl)-[1,1′-biphenyl]-3-yl)methoxy)-2,3-dihydro-1H-inden-4-yl)methyl)pyrrolidine-2-carboxylic acid] | > 500 nM
N#Cc1c(COc2cc(OCCCCC(=O)O)c(CN3CCCC[C@H]3C(=O)O)c3c2CCC3)cccc1-c1ccccc1 [Compound 78, (S)-1-((5-(4-carboxybutoxy)-7-((2-cyano-[1,1′-biphenyl]-3-yl)methoxy)-2,3-dihydro-1H-inden-4-yl)methyl)piperidine-2-carboxylic acid] | < 100 nM
CC(=O)NCCNCc1c(OCCCCC#N)cc(OCc2cccc(-c3ccccc3)c2C)c2c1CCC2 [Compound 79, N-(2-(((5-(4-cyanobutoxy)-7-((2-methyl-[1,1′-biphenyl]-3-yl)methoxy)-2,3-dihydro-1H-inden-4-yl)methyl)amino)ethyl)acetamide] | < 100 nM
Cc1c(COc2cc(OCCCCC#N)c(CN3CCCC[C@H]3C(N)=O)c3c2CCC3)cccc1-c1ccccc1 [Compound 80, (S)-1-((5-(4-cyanobutoxy)-7-((2-methyl-[1,1′-biphenyl]-3-yl)methoxy)-2,3-dihydro-1H-inden-4-yl)methyl)piperidine-2-carboxamide] | > 500 nM
Cc1c(COc2cc(OCCCCC#N)c(CN3C[C@H](O)C[C@H]3C(=O)O)c3c2CCC3)cccc1-c1ccccc1 [Compound 81, (2S,4R)-1-((5-(4-cyanobutoxy)-7-((2-methyl-[1,1′-biphenyl]-3-yl)methoxy)-2,3-dihydro-1H-inden-4-yl)methyl)-4-hydroxypyrrolidine-2-carboxylic acid] | < 100 nM
Cc1c(COc2cc(OC[C@H]3C[C@H]3C(=O)O)c(CN3CCCC[C@H]3C(=O)O)c3c2CCC3)cccc1-c1ccccc1 [Compound 82, (S)-1-((5-(((1S,2R)-2-carboxycyclopropyl)methoxy)-7-((2-methyl-[1,1′-biphenyl]-3-yl)methoxy)-2,3-dihydro-1H-inden-4-yl)methyl)piperidine-2-carboxylic acid] | 100 to 500 nM
CC(=O)NCCNCc1c(OC[C@H]2C[C@H]2C(=O)O)cc(OCc2cccc(-c3ccccc3)c2C)c2c1CCC2 [Compound 83, (1R,2S)-2-(((4-(((2-acetamidoethyl)amino)methyl)-7-((2-methyl-[1,1′-biphenyl]-3-yl)methoxy)-2,3-dihydro-1H-inden-5-yl)oxy)methyl)cyclopropane-1-carboxylic acid] | 100 to 500 nM
COc1cc(OCc2cccc(-c3ccc4c(c3)OCCO4)c2C)c2c(c1CN1C[C@H](O)C[C@H]1C(=O)O)CCC2 [Compound 85, (2S,4R)-1-((7-((3-(2,3-dihydrobenzo[b][1,4]dioxin-6-yl)-2-methylbenzyl)oxy)-5-methoxy-2,3-dihydro-1H-inden-4-yl)methyl)-4-hydroxypyrrolidine-2-carboxylic acid] | 100 to 500 nM
CC(=O)NCCNCc1c(OCc2cccc(C#N)c2)cc(OCc2cccc(-c3ccccc3C)c2C)c2c1CCC2 [Compound 86, N-(2-(((5-((3-cyanobenzyl)oxy)-7-((2,2′-dimethyl-[1,1′-biphenyl]-3-yl)methoxy)-2,3-dihydro-1H-inden-4-yl)methyl)amino)ethyl)acetamide] | 100 to 500 nM
CC(=O)NCCNCc1c(OCc2cccc(C#N)c2)cc(OCc2cccc(-c3ccc(F)cc3)c2C)c2c1CCC2 [Compound 87, N-(2-(((5-((3-cyanobenzyl)oxy)-7-((4′-fluoro-2-methyl-[1,1′-biphenyl]-3-yl)methoxy)-2,3-dihydro-1H-inden-4-yl)methyl)amino)ethyl)acetamide] | 100 to 500 nM
Cc1c(COc2cc(OCc3cccc(C(N)=O)c3)c(CN3CCCC[C@H]3C(=O)O)c3c2CCC3)cccc1-c1ccccc1 [Compound 88, (S)-1-((5-((3-carbamoylbenzyl)oxy)-7-((2-methyl-[1,1′-biphenyl]-3-yl)methoxy)-2,3-dihydro-1H-inden-4-yl)methyl)piperidine-2-carboxylic acid] | 100 to 500 nM
CC(=O)NCc1c(OCc2cccc(C#N)c2)cc(OCc2cccc(-c3ccccc3)c2C)c2c1CCC2 [Compound 90, N-((5-((3-cyanobenzyl)oxy)-7-((2-methyl-[1,1′-biphenyl]-3-yl)methoxy)-2,3-dihydro-1H-inden-4-yl)methyl)acetamide] | > 500 nM
CC(=O)NCCCCCC(=O)NCc1c(OCc2cccc(C#N)c2)cc(OCc2cccc(-c3ccccc3)c2C)c2c1CCC2 [Compound 91, 6-acetamido-N-((5-((3-cyanobenzyl)oxy)-7-((2-methyl-[1,1′-biphenyl]-3-yl)methoxy)-2,3-dihydro-1H-inden-4-yl)methyl)hexanamide] | > 500 nM
CC(=O)NCCNCc1c(OCc2cncc(C(N)=O)c2)cc(OCc2cccc(-c3ccccc3)c2C)c2c1CCC2 [Compound 94, 5-(((4-(((2-acetamidoethyl)amino)methyl)-7-((2-methyl-[1,1′-biphenyl]-3-yl)methoxy)-2,3-dihydro-1H-inden-5-yl)oxy)methyl)nicotinamide] | < 100 nM
CC(=O)NCCNCc1c(OCc2cccc(C(N)=O)c2)cc(OCc2cccc(-c3ccccc3)c2C)c2c1CCC2 [Compound 95, 3-(((4-(((2-acetamidoethyl)amino)methyl)-7-((2-methyl-[1,1′-biphenyl]-3-yl)methoxy)-2,3-dihydro-1H-inden-5-yl)oxy)methyl)benzamide] | < 100 nM
COc1nc(OCc2cccc(-c3ccccc3)c2C)c2c(c1CNCCNC(C)=O)CCC2 [Compound 97, N-(2-(((3-methoxy-1-((2-methyl-[1,1′-biphenyl]-3-yl)methoxy)-6,7-dihydro-5H-cyclopenta[c]pyridin-4-yl)methyl)amino)ethyl)acetamide] | < 100 nM

Further lines, results first:

IC50 | SMILES
< 100 nM | N#Cc1cncc(COc2cc(OCc3cccc(-c4ccccc4)c3C#N)c3c(c2CN2CCCC[C@H]2C(=O)O)CCC3)c1 [Compound 69, (S)-1-((7-((2-cyano-[1,1′-biphenyl]-3-yl)methoxy)-5-((5-cyanopyridin-3-yl)methoxy)-2,3-dihydro-1H-inden-4-yl)methyl)piperidine-2-carboxylic acid]
< 100 nM | N#Cc1cncc(COc2cc(OCc3cccc(-c4ccccc4)c3C#N)c3c(c2CN2C[C@H](O)C[C@H]2C(=O)O)CCC3)c1 [Compound 70, (2S,4R)-1-((7-((2-cyano-[1,1′-biphenyl]-3-yl)methoxy)-5-((5-cyanopyridin-3-yl)methoxy)-2,3-dihydro-1H-inden-4-yl)methyl)-4-hydroxypyrrolidine-2-carboxylic acid]
< 100 nM | N#Cc1cncc(COc2cc(OCc3cccc(-c4ccccc4)c3C#N)c3c(c2CN2CCC[C@@H](C(=O)O)C2)CCC3)c1 [Compound 71, (R)-1-((7-((2-cyano-[1,1′-biphenyl]-3-yl)methoxy)-5-((5-cyanopyridin-3-yl)methoxy)-2,3-dihydro-1H-inden-4-yl)methyl)piperidine-3-carboxylic acid]
< 100 nM | Cc1c(COc2cc(OCc3cccc(C#N)c3)c(CNC34CCC(C(=O)O)(CC3)CC4)c3c2CCC3)cccc1-c1ccccc1 [Compound 74, 4-(((5-((3-cyanobenzyl)oxy)-7-((2-methyl-[1,1′-biphenyl]-3-yl)methoxy)-2,3-dihydro-1H-inden-4-yl)methyl)amino)bicyclo[2.2.2]octane-1-carboxylic acid]
< 100 nM | Cc1c(COc2cc(OCC3CCCN(C)C3)c(CN3CCCC[C@H]3C(=O)O)c3c2CCC3)cccc1-c1ccccc1 (stereo partly drawn) [Compound 77, (2S)-1-((7-((2-methyl-[1,1′-biphenyl]-3-yl)methoxy)-5-((1-methylpiperidin-3-yl)methoxy)-2,3-dihydro-1H-inden-4-yl)methyl)piperidine-2-carboxylic acid]
< 100 nM | COc1cc(OCc2cccc(-c3ccc4c(c3)OCCO4)c2C)c2c(c1CN1CCCC[C@H]1C(=O)O)CCC2 [Compound 84, (S)-1-((7-((3-(2,3-dihydrobenzo[b][1,4]dioxin-6-yl)-2-methylbenzyl)oxy)-5-methoxy-2,3-dihydro-1H-inden-4-yl)methyl)piperidine-2-carboxylic acid]
< 100 nM | Cc1c(COc2cc(OCc3cccc(C#N)c3)c(CN)c3c2CCC3)cccc1-c1ccccc1 [Compound 89, 3-(((4-(aminomethyl)-7-((2-methyl-[1,1′-biphenyl]-3-yl)methoxy)-2,3-dihydro-1H-inden-5-yl)oxy)methyl)benzonitrile]
< 100 nM | Cc1c(COc2cc(OCc3cccc(C#N)c3)c(CN(C)C)c3c2CCC3)cccc1-c1ccccc1 [Compound 92, 3-(((4-((dimethylamino)methyl)-7-((2-methyl-[1,1′-biphenyl]-3-yl)methoxy)-2,3-dihydro-1H-inden-5-yl)oxy)methyl)benzonitrile]
< 100 nM | CC(=O)NCCNCc1c(OCc2cncc(C(=O)O)c2)cc(OCc2cccc(-c3ccccc3)c2C)c2c1CCC2 [Compound 93, 5-(((4-(((2-acetamidoethyl)amino)methyl)-7-((2-methyl-[1,1′-biphenyl]-3-yl)methoxy)-2,3-dihydro-1H-inden-5-yl)oxy)methyl)nicotinic acid]
